Measurements taken from patent US8604030B2, “Fused piperidine compound and pharmaceutical containing same” (Kowa Company, Ltd., priority 2009, dated 2013).

Tests used:
[1] = tested on: Human hepatocellular carcinoma cell line HepG2; experiment: EPO production in HepG2 culture supernatant (ELISA), 48 hours at 4% oxygen; type: cell-based; conditions: oxygen concentration 4%, 100% = EPO produced in non-stimulated state without compound; for activity at 3 µM: test compound 3 μM, read-out: % of Control (3 μM), produced amount of EPO; for activity at 10 µM: test compound 10 μM, read-out: % of Control (10 μM), produced amount of EPO
Procedure: Human hepatocellular carcinoma cell line HepG2 was inoculated in aliquots of 5×10^4 cells each into each of the wells of a 48-well plate using minimum essential medium (MEM, Sigma) containing 10% fetal bovine serum. On the following day, the medium was replaced with Dulbecco's Modified Eagle Medium (DMEM, Sigma) not containing phenol red but containing 10% fetal bovine serum followed by the addition of a test compound dissolved in DMSO to a final concentration of 3 μM or 10 and bringing to a final media volume of 400 μl per well. After incubating for 48 hours in a CO2 incubator having an oxygen concentration of 4%, the culture supernatant was recovered. The concentration of EPO in the culture supernatant was measured immediately using an ELISA kit (Roche Diagnostics). The procedure used complied with that described in the instructions.
The produced amount of EPO derived from each compound was determined based on a value of 100% for the amount of EPO produced in a non-stimulated state in the absence of addition of a compound (% of control).

[2] = tested on: Human proerythroblast cell line K562; experiment: Hemoglobin production in K562 cells (porphyrin ring fluorescence); type: cell-based; conditions: 72 h, test compound 6 μM, 3 days + 3 days after medium replacement, 3×10^5 cells, 100% = hemoglobin produced in non-stimulated state without compound, read-out: % of Control (6 μM), amount of hemoglobin produced
Procedure: Human proerythroblast cell line K562 (acquired from ATCC) was inoculated in aliquots of 1×10^5 cells/mL into each of the wells of a 24-well plate using complete medium (RPMI-1640 medium containing 10% fetal bovine serum), followed by the addition of the test compounds at a final concentration of 6 μM and incubating for 3 days in a CO2 incubator (37° C., 5% CO2). Culturing was continued for an additional 3 days after replacing the medium. The cells were then collected and counted followed by unifying to a cell count of 3×10^5 cells and determining the amount of hemoglobin produced in the cells by measuring the fluorescence of the porphyrin ring. Namely, the cells collected by centrifugation were suspended in 500 μL of 2 M oxalic acid, and boiled for 30 minutes and allowed to cool, followed by measuring fluorescence intensity with a fluorescent microplate reader (Spectra MAX Gemini EM, MDC Japan, Inc.) ([…]). The amount of hemoglobin induced to be produced by each compound was determined based on a value of 100% for the amount of hemoglobin produced in a non-stimulated state in the absence of addition of a compound (% of control).

Row | SMILES | activity at 3 µM [1] [%] | activity at 6 µM [2] [%] | activity at 10 µM [1] [%]
1 | CC(=O)N1c2ncccc2[C@H](Nc2ccc(Cl)cc2)C[C@@H]1C (relative stereo) [Compound 1, cis-1-acetyl-4-[(4-chlorophenyl)amino]-2-methyl-3,4-dihydro-2H-[1,8]-naphthyridine] | 416 | 197 | 
2 | CC(=O)N1c2ccncc2[C@H](Nc2ccc(Cl)cc2)C[C@@H]1C (relative stereo) [Compound 2, cis-1-acetyl-4-[(4-chlorophenyl)amino]-2-methyl-3,4-dihydro-2H-[1,6]-naphthyridine] | 392 | 249 | 
3 | CC(=O)N1c2cccnc2[C@H](Nc2ccc(Cl)cc2)C[C@@H]1C (relative stereo) [Compound 3, cis-1-acetyl-4-[(4-chlorophenyl)amino]-2-methyl-3,4-dihydro-2H-[1,5]-naphthyridine] | 153 | 105 | 
4 | CC(=O)N1c2c(ccc3ccccc23)[C@H](Nc2ccc(Cl)cc2)C[C@@H]1C (relative stereo) [Compound 5, cis-1-acetyl-4-[(4-chlorophenyl)amino]-2-methyl-1,2,3,4-tetrahydro-benzo[h]quinoline] |  |  | 183
5 | CC(=O)N1c2ccc3[nH]ccc3c2[C@H](Nc2ccc(Cl)cc2)C[C@@H]1C (relative stereo) [Compound 7, cis-6-acetyl-9-(4-chlorophenylamino)-7-methyl-6,7,8,9-tetrahydro-3H-pyrrolo[3,2-f]quinoline] |  | 436 | 137
6 | CC(=O)N1c2ccc3oc(=O)ccc3c2[C@H](Nc2ccc(Cl)cc2)C[C@@H]1C (relative stereo) [Compound 9, cis-7-acetyl-10-(4-chlorophenylamino)-8-methyl-7,8,9,10-tetrahydro-3H-pyrano[3,2-f]-quinolin-3-one] |  | 166 | 116
7 | CC(=O)N1c2cc3c(cc2[C@H](Nc2ccc(Cl)cc2)C[C@@H]1C)OCO3 (relative stereo) [Compound 10, cis-1-[8-(4-chlorophenylamino)-6-methyl-7,8-dihydro-[1,3]dioxolo[4,5-g]quinolin-5(6H)-yl]ethanone] |  | 520 | 191
8 | CC(=O)N1c2ccsc2C(Nc2ccc(Cl)cc2)CC1C (centres unmarked) [Compound 4, 1-(7-(4-chlorophenylamino)-5-methyl-6,7-dihydrothieno[3,2-b]pyridine-4(5H)-yl)ethanone] | 137 | 135 | 
9 | CC(=O)N1c2ccc3[nH]cnc3c2C(Nc2ccc(Cl)cc2)CC1C (stereo not drawn) [Compound 8, Cis-1-acetyl-9-[(4-chlorophenyl)amino]-7-methyl-6,7,8,9-tetrahydro-1H-imiazo[4,5-f]quinoline] |  | 185 | 104
10 | CC(=O)N1c2cc3c(cc2C(Nc2ccc(Cl)cc2)CC1C)OCCO3 (centres unmarked) [Compound 11, 6-acetyl-9-[(4-chlorophenyl)amino]-7-methyl-2,3,6,7,8,9-hexahydro-[1,4]dioxano[2,3-g]quinoline] |  | 302 | 190
11 | CC(=O)N1c2cc3c(cc2C(Nc2ccc(Cl)cc2)CC1C)OCC(=O)N3 (stereo not drawn) [Compound 12, cis-6-acetyl-9-(4-chlorophenylamino)-7-methyl-6,7,8,9-tetrahydro-2H-[1,4]oxazino[2,3-g]quinolin-3-(4H)-one] |  |  | 103
